Measured values published in patent US8658791B2, “2-substituted-6-amino-5-alkyl, alkenyl or alkynyl-4-pyrimidinecarboxylic acids and 6-substituted-4-amino-3-alkyl, alkenyl or alkynyl picolinic acids and their use as herbicides” (Dow AgroSciences, LLC, priority 2007, dated 2014).

How the values were obtained:
Assay type in all cases: in vivo
[1] = system: lambsquarter (Chenopodium album); test: General postemergence herbicidal activity, CHEAL; settings: Chenopodium album, post-emergence, 336 h, postemergence spray, visual score after 14 days, 0 = no injury, 100 = complete kill, read-out: Post-emergent Weed Control CHEAL; for pest or weed control at 140 g/ha: 140 g ai/ha; for pest or weed control at 280 g/ha: 280 g ai/ha
Procedure: (§1) Seeds or nutlets of the desired test plant species were planted in Sun Gro MetroMix® 306 planting mixture, which typically has a pH of 6.0 to 6.8 and an organic matter content of about 30 percent, in plastic pots with a surface area of 103 square centimeters. When required to ensure good germination and healthy plants, a fungicide treatment and/or other chemical or physical treatment was applied. The plants were grown for 7-21 days in a greenhouse with an approximate 15 hour photoperiod which was maintained at about 23-29° C. during the day and 22-28° C. during the night. Nutrients and water were added on a regular basis and supplemental lighting was provided with overhead metal halide 1000-Watt lamps as necessary. The plants were employed for testing when they reached the first or second true leaf stage.
(§2) A weighed amount, determined by the highest rate to be tested, of each test compound was placed in a 25 mL glass vial and was dissolved in 4 mL of a 97:3 v/v (volume/volume) mixture of acetone and dimethyl sulfoxide (DMSO) to obtain concentrated stock solutions. […] The concentrated stock solutions obtained were diluted with 20 mL of an aqueous mixture containing acetone, water, isopropyl alcohol, DMSO, Atplus 411F crop oil concentrate, and Triton® X-155 surfactant in a 48.5:39:10:1.5:1.0:0.02 v/v ratio to obtain spray solutions containing the highest application rates. Additional application rates were obtained by serial dilution of 12 mL of the high rate solution into a solution containing 2 mL of 97:3 v/v (volume/volume) mixture of acetone and dimethyl sulfoxide (DMSO) and 10 mL of an aqueous mixture containing acetone, water, isopropyl alcohol, DMSO, Atplus 411F crop oil concentrate, and Triton X-155 surfactant in a 48.5:39:10:1.5:1.0:0.02 v/v ratio to obtain 1/2X, 1/4X, 1/8X and 1/16X rates of the high rate. Compound requirements are based upon a 12 mL application volume at a rate of 187 L/ha. Formulated compounds were applied to the plant material with an overhead Mandel track sprayer equipped with a 8002E nozzles calibrated to deliver 187 L/ha over an application area of 0.503 square meters at a spray height of 18 inches (43 cm) above the average plant canopy height. Control plants were sprayed in the same manner with the solvent blank.
(§3) The treated plants and control plants were placed in a greenhouse as described above and watered by sub-irrigation to prevent wash-off of the test compounds. After 14 days, the condition of the test plants as compared with that of the untreated plants was determined visually and scored on a scale of 0 to 100 percent where 0 corresponds to no injury and 100 corresponds to complete kill.

[2] = system: velvetleaf (Abutilon theophrasti); test: General postemergence herbicidal activity, ABUTH; settings: Abutilon theophrasti, post-emergence, 336 h, postemergence spray, visual score after 14 days, 0 = no injury, 100 = complete kill, read-out: Post-emergent Weed Control ABUTH; for pest or weed control at 140 g/ha: 140 g ai/ha; for pest or weed control at 280 g/ha: 280 g ai/ha
Procedure: as §1, §2, §3

[3] = system: wild poinsettia (Euphorbia heterophylla); test: General postemergence herbicidal activity, EPHHL; settings: Euphorbia heterophylla, post-emergence, 336 h, postemergence spray, visual score after 14 days, 0 = no injury, 100 = complete kill, read-out: Post-emergent Weed Control EPHHL; for pest or weed control at 140 g/ha: 140 g ai/ha; for pest or weed control at 280 g/ha: 280 g ai/ha
Procedure: as §1, §2, §3

[4] = system: barnyardgrass (Echinochloa crus-galli); test: General postemergence herbicidal activity, ECHCG; settings: Echinochloa crus-galli, post-emergence, 336 h, postemergence spray, visual score after 14 days, 0 = no injury, 100 = complete kill, read-out: Post-emergent Weed Control ECHCG; for pest or weed control at 140 g/ha: 140 g ai/ha; for pest or weed control at 280 g/ha: 280 g ai/ha
Procedure: as §1, §2, §3

rice (Oryza sativa) = test: General postemergence herbicidal activity, ORYSA; settings: Oryza sativa, post-emergence, 336 h, postemergence spray, visual score after 14 days, 0 = no injury, 100 = complete kill, read-out: Post-emergent Weed Control ORYSA; for plant injury at 140 g/ha: 140 g ai/ha; for plant injury at 280 g/ha: 280 g ai/ha
Procedure: as §1, §2, §3

Structure (SMILES)	pest or weed control at 140 g/ha [1] [%]	pest or weed control at 140 g/ha [2] [%]	pest or weed control at 140 g/ha [3] [%]	pest or weed control at 140 g/ha [4] [%]	plant injury at 140 g/ha (rice (Oryza sativa)) [%]	pest or weed control at 280 g/ha [1] [%]	pest or weed control at 280 g/ha [2] [%]	pest or weed control at 280 g/ha [3] [%]	pest or weed control at 280 g/ha [4] [%]	plant injury at 280 g/ha (rice (Oryza sativa)) [%]	further results
C=C(F)c1c(N)nc(-c2ccc(Cl)c(OC)c2F)nc1C(=O)OC [Compound 9, 6-Amino-2-(4-chloro-2-fluoro-3-methoxyphenyl)-5-(1-fluorovinyl) pyrimidine-4-carboxylic acid methyl ester]	95	90	100	90	0						
C=C(OCC)c1c(N)nc(-c2ccc(Cl)c(OC)c2F)nc1C(=O)OC [Compound 10, 6-Amino-2-(4-chloro-2-fluoro-3-methoxyphenyl)-5-(1-ethoxyvinyl)pyrimidine-4-carboxylic acid methyl ester]						40	50	75	0	0	
C=Cc1c(N)nc(-c2cc(F)c(Cl)cc2F)nc1C(=O)OC [Compound 12, 6-Amino-2-(4-chloro-2,5-difluorophenyl)-5-vinylpyrimidine-4-carboxylic acid methyl ester]	100	100	50	50	0						
C=Cc1c(N)nc(-c2cc(C)c(Cl)cc2F)nc1C(=O)OC [Compound 13, 6-Amino-2-(4-chloro-2-fluoro-5-methylphenyl)-5-vinylpyrimidine-4-carboxylic acid methyl ester]						100	90	60	0	0	
C=Cc1c(N)nc(-c2ccc(Cl)c(C(F)F)c2F)nc1C(=O)OC [Compound 15, 6-Amino-2-(4-chloro-3-difluoromethyl-2-fluorophenyl)-5-vinylpyrimidine-4-carboxylic acid methyl ester]	100	100	100	100	5						
C=Cc1c(N)nc(-c2ccc(Cl)c(F)c2)nc1C(=O)OC [Compound 16, 6-Amino-2-(4-chloro-3-fluorophenyl)-5-vinylpyrimidine-4-carboxylic acid methyl ester]	95	100	80	0	0						
C=Cc1c(N)nc(-c2ccc(Cl)c(OC(F)F)c2F)nc1C(=O)OC [Compound 17, 6-Amino-2-(4-chloro-3-difluoromethoxy-2-fluorophenyl)-5-vinylpyrimidine-4-carboxylic acid methyl ester]						100	100	100	100	0	
C=Cc1c(N)nc(-c2ccc(Cl)c(OC)c2Cl)nc1C(=O)OC [Compound 18, 6-Amino-2-(2,4-dichloro-3-methoxyphenyl)-5-vinylpyrimidine-4-carboxylic acid methyl ester]	100	100	40	90	0						
C=Cc1c(N)nc(-c2ccc(Cl)c(N(C)C)c2F)nc1C(=O)OC [Compound 19, 6-Amino-2-(4-chloro-3-dimethylamino-2-fluorophenyl)-5-vinylpyrimidine-4-carboxylic acid methyl ester]						100	100	100	85	85	
C=Cc1c(N)nc(-c2ccc(Cl)c(C(C)F)c2)nc1C(=O)OC (stereo not drawn) [Compound 20, 6-Amino-2-[4-chloro-3-(1-fluoroethyl)phenyl]-5-vinylpyrimidine-4-carboxylic acid methyl ester]						100	85	100	70	0	
C/C=C/c1c(N)nc(-c2ccc(Cl)c(OC)c2F)nc1C(=O)OC [Compound 22, 6-Amino-2-(4-chloro-2-fluoro-3-methoxyphenyl)-5-((E)-propenyl)pyrimidine-4-carboxylic acid methyl ester]											pest or weed control at 70 g/ha ([1]; 70 g ai/ha): 95%; pest or weed control at 70 g/ha ([2]; 70 g ai/ha): 85%; pest or weed control at 70 g/ha ([3]; 70 g ai/ha): 100%; pest or weed control at 70 g/ha ([4]; 70 g ai/ha): 95%; plant injury at 70 g/ha (rice (Oryza sativa); 70 g ai/ha): 0%
C#Cc1c(N)nc(-c2ccc(Cl)c(OC)c2F)nc1C(=O)OC [Compound 24, 6-Amino-2-(4-chloro-2-fluoro-3-methoxyphenyl)-5-ethynyl-pyrimidine-4-carboxylic acid methyl ester]	85	80	85	70	0						
C=Cc1c(N)nc(-c2ccc(Cl)c(F)c2)nc1C(=O)O [Compound 49, 6-Amino-2-(4-chloro-3-fluorophenyl)-5-vinylpyrimidine-4-carboxylic acid]	100	65	100		0						
C=Cc1c(C(=O)O)nc(-c2ccc(Cl)cc2)c(F)c1N [Compound 61, 4-Amino-6-(4-chlorophenyl)-5-fluoro-3-vinylpyridine-2-carboxylic acid]	100	100	95		50						
C=Cc1c(N)nc(-c2ccc(Cl)c(OC)c2F)nc1C(=O)OCCCC [Compound 62, 6-Amino-2-(4-chloro-2-fluoro-3-methoxyphenyl)-5-vinyl-pyrimidine-4-carboxylic acid butyl ester]	100	100	100		25						
